Where a SMILES comes first, the peptide text is derived from it. Where no end group is shown, it is not given here. The star is where a group is joined. FITC = O=C1OC2(c3ccc(O)cc3Oc3cc(O)ccc32)c2ccc(NC(=S)*)cc21; Ahx = NCCCCCC(=O)O
Tested on: mesothelial cells
Assay: Intracellular uptake of FITC-YARA by flow cytometry / confocal imaging
Type: cell-based, Human
Description: Flow cytometry was used to characterize the uptake of FITC-YARA. Mesothelial cells were seeded on gel substrates or tissue culture plastic, and cultured as previously described. After treating overnight with serum free media, cells were treated with various concentrations of FITC-YARA (refer to figures) or PBS (untreated control) in serum free media and incubated for 24 hours. To collect cells for flow cytometry, cells were washed with PBS, trypsin treated for 5–10 minutes, neutralized with serum-containing media, collected in a 15-ml conical tube and spun down at 300 × g for seven minutes. Cells were washed with PBS, quenched with trypan blue, then washed four to five times with PBS. Once excess trypan blue was washed away, cells were fixed using 1X cytofix buffer (BD). Samples were stored protected from light at 4°C until samples were run on the Cytomics FC500 MPL flow cytometer (Beckman Coulter) equipped with MXP Cytometry List Mode Data Acquisition and Analysis Software. Data acquisition required 10,000 events. Figures were obtained using Flow Jo software.
To characterize uptake on soft substrates, cells were pretreated with 10 mM methyl-β-cyclodextrin (MβCD) for 1 hour or incubated at 4°C for 30 minutes, then treated with 3 µM YARA for 1 hour. Cells were then collected and assayed by flow cytometry as previously described.
To elucidate the role of the cytoskeleton in the uptake of FITC-YARA, mesothelial cells were treated with various chemicals known to alter the cytoskeleton. Cytochalasin D (Sigma; 5 µg/ml) was used as an inhibitor of stress fiber formation on tissue culture plastic, lysophosphatidic acid (LPA; Sigma; 1,5,and 25 µg/ml ) was used to induce stress fiber formation on soft substrates and tissue culture plastic, and nocodozole (Calbiochem; 1 and 10 µg/ml) was used to inhibit microtubule polymerization on soft substrates. Cells were seeded and grown on substrates or tissue culture plastic as previously described. Following one hour pretreatment with the various inhibitors, cells were incubated with FITC-YARA for 1 hour then processed for flow cytometry.
For confocal images, cells were treated with FITC-YARA for 1 hour, then washed five times with media before imaging live using an FV1000 confocal microscopy equipped with ASW-10 software (Olympus).

uptake on soft substrates compared to tissue culture plastic (3 µM FITC-YARA, 24 h, 21,000 cells/cm^2, serum-free media, flow cytometry, trypan blue quench)	uptake on soft substrates with MβCD (soft substrate, 10 mM methyl-β-cyclodextrin pretreatment 1 h then 3 µM peptide 1 h, flow cytometry)	uptake on soft substrates at 4°C (soft substrate, 30 min at 4°C then 3 µM peptide 1 h, flow cytometry)	effect of cytochalasin D (actin filament disruption) on peptide uptake (3 µM, TCPS, 5 µg/ml cytochalasin D 1 h pretreatment, peptide 1 h, flow cytometry)	effect of nocodazole (microtubule polymerization inhibition) on uptake (3 µM, soft substrate, 21,000 cells/cm^2, 1 or 10 µg/ml nocodazole 1 h pretreatment, peptide 1 h, flow cytometry, dose dependent)	effect of LPA (actin filament induction) on peptide uptake (3 µM, soft substrate, 21,000 cells/cm^2, 5 or 25 µg/ml LPA 1 h pretreatment, peptide 1 h, flow cytometry)	Compound	uptake on soft substrates compared to tissue culture plastic at high seeding density (3 µM FITC-YARA, 71,000 cells/cm^2, flow cytometry)	intracellular uptake compared to untreated controls (all substrates, 3 µM FITC-YARA, 24 h, flow cytometry)
approximately double the uptake	inhibited with MβCD pretreatment	inhibited at low temperatures				CC(C)C[C@H](NC(=O)[C@H](C)NC(=O)[C@H](CCCCN)NC(=O)[C@H](C)NC(=O)[C@H](CCCNC(=N)N)NC(=O)[C@H](C)NC(=O)[C@H](CCC(N)=O)NC(=O)[C@H](CCCNC(=N)N)NC(=O)[C@H](C)NC(=O)[C@H](C)NC(=O)[C@H](C)NC(=O)[C@H](CCCNC(=N)N)NC(=O)[C@H](C)NC(=O)[C@H](Cc1ccc(O)cc1)NC(=O)CCCCCNC(=S)Nc1ccc2c(c1)C(=O)OC21c2ccc(O)cc2Oc2cc(O)ccc21)C(=O)N[C@@H](C)C(=O)N[C@@H](CCCNC(=N)N)C(=O)N[C@@H](CCC(N)=O)C(=O)N[C@@H](CC(C)C)C(=O)NCC(=O)N[C@H](C(=O)N[C@@H](C)C(=O)N[C@@H](C)C(N)=O)C(C)C [FITC-YARA] ({FITC-Ahx}-YARAAARQARAKALARQLGVAA-NH2)	decreased the amount of FITC-YARA that was endocytosed	increased intracellular uptake compared to untreated controls
			no effect on peptide uptake	pronounced increase in YARA uptake	no effect on peptide uptake	YARAAARQARAKALARQLGVAA-NH2 [YARA]		

— PMC3882240, “Matrix Stiffness Affects Endocytic Uptake of MK2-Inhibitor Peptides” (PLoS ONE, 2014)
